Measured values from patent publication US20220396586A1, “THIAZOLE CARBOXAMIDE COMPOUNDS AND USE THEREOF FOR THE TREATMENT OF MYCOBACTERIAL INFECTIONS” (THE GLOBAL ALLIANCE FOR TB DRUG DEVELOPMENT, INC., priority 2019, published 2022).
≈ marks a conversion by molar mass, not a printed value.

Key:
[1] = tested on: M. tb H37Rv; assay: MIC determination against M. tb H37Rv (MIC-MABA); assay type: cell-based, Mycobacterium tuberculosis; conditions: Mycobacterium tuberculosis, H37RV, 240 h, read-out: M. tb H37Rv: MIC-MABA, M. tb H37Rv; 7H9 broth; 10 days exposure; MIC = lowest concentration inhibiting fluorescence by 90%
[2] = tested on: M. ab_ATCC; assay: MIC against Mycobacterium abscessus (M. ab_ATCC, MHII), procedure of Franz 2017; assay type: cell-based; conditions: Mycobacteroides abscessus, Mycobacterium abscessus ATCC
Description: The procedure described in Franz 2017 was used to generate the data shown in column 2 of Table 1.

C[Si]1(C)CCC(NC(=O)c2cc3sc(C4CC4)nc3[nH]2)C1 (centres unmarked) [MPL-297, 2-cyclopropyl-N-(1,1-dimethylsilolan-3-yl)-4H-pyrrolo[2,3-d]thiazole-5-carboxamide]
MIC [1]: 0.982 µg/mL (≈ 3.07 µM) | MIC [2]: > 64 µg/mL

C[Si]1(C)CCCC(NC(=O)c2cc3sc(C4CC4)nc3[nH]2)CCC1 [MPL-304, 2-cyclopropyl-N-(1,1-dimethylsilocan-5-yl) -4H-pyrrolo[2,3-d]thiazole-5-carboxamide]
MIC [1]: 0.291 µg/mL (≈ 0.805 µM) | MIC [2]: > 64 µg/mL

C[Si]1(C)CCC(NC(=O)c2cc3sc(-c4ccccc4)nc3[nH]2)CC1 [MPL-308, N-(1,1-dimethylsilinan-4-yl)-2-phenyl-4H-pyrrolo[2,3-d]thiazole-5-carboxamide]
MIC [1]: 0.007 µg/mL (≈ 0.0189 µM) | MIC [2]: > 64 µg/mL

COc1nc2[nH]c(C(=O)NC3CC[Si](C)(C)CC3)cc2s1 [MPL-309, N-(1,1-dimethylsilinan-4-yl)-2-methoxy-4H-pyrrolo[2,3-d]thiazole-5-carboxamide]
MIC [1]: 0.088 µg/mL (≈ 0.272 µM) | MIC [2]: 0.625 µg/mL (≈ 1.93 µM)

C[Si]1(C)CCC(NC(=O)c2[nH]c3sc(C4CC4)nc3c2Br)CC1 [MPL-311, 6-bromo-2-cyclopropyl-N-(1,1-dimethylsilinan-4-yl)-4H-pyrrolo[3,2-d]thiazole-5-carboxamide]
MIC [1]: 0.457 µg/mL (≈ 1.11 µM) | MIC [2]: > 64 µg/mL

Cc1c(C(=O)NC2CC[Si](C)(C)CC2)[nH]c2sc(C(C)C)nc12 [MPL-312, N-(1,1-dimethylsilinan-4-yl)-2-isopropyl-6-methyl-4H-pyrrolo[3,2-d]thiazole-5-carboxamide]
MIC [1]: 0.498 µg/mL (≈ 1.42 µM) | MIC [2]: > 64 µg/mL

COc1nc2cc(C(=O)NC3CC[Si](C)(C)CC3)[nH]c2s1 [MPL-313, N-(1,1-dimethylsilinan-4-yl)-2-methoxy-4H-pyrrolo[3,2-d]thiazole-5-carboxamide]
MIC [1]: 0.254 µg/mL (≈ 0.785 µM) | MIC [2]: > 64 µg/mL

O=C(NC1CC[Si]2(CCCC2)CC1)c1cc2sc(-c3ccccc3)nc2[nH]1 [MPL-358, 2-phenyl-N-(5-silaspiro[4.5]decan-8-yl)-4H-pyrrolo[2,3-d]thiazole-5-carboxamide]
MIC [1]: 0.033 µg/mL (≈ 0.0834 µM) | MIC [2]: > 64 µg/mL

O=C(NC1CC[Si]2(CCCCC2)CC1)c1cc2sc(-c3ccccc3)nc2[nH]1 [MPL-359, 2-phenyl-N-(6-silaspiro[5.5]undecan-3-yl)-4H-pyrrolo[2,3-d]thiazole-5-carboxamide]
MIC [1]: 0.014 µg/mL (≈ 0.0342 µM) | MIC [2]: > 64 µg/mL

C[Si]1(C)CCCC(NC(=O)c2cc3sc(-c4ccccn4)nc3[nH]2)CC1 (centres unmarked) [MPL-364, N-(1,1-dimethylsilepan-4-yl)-2-(2-pyridyl)-4H-pyrrolo[2,3-d]thiazole-5-carboxamide]
MIC [1]: 0.423 µg/mL (≈ 1.1 µM) | MIC [2]: > 64 µg/mL

C[Si]1(C)CCCC(NC(=O)c2cc3sc(-c4cccnc4)nc3[nH]2)CC1 (centres unmarked) [MPL-365, N-(1,1-dimethylsilepan-4-yl)-2-(3-pyridyl)-4H-pyrrolo[2,3-d]thiazole-5-carboxamide]
MIC [1]: 0.125 µg/mL (≈ 0.325 µM) | MIC [2]: > 64 µg/mL

C[Si]1(C)CCCC(NC(=O)c2cc3sc(-c4ccccc4)nc3[nH]2)CCC1 [MPL-369, N-(1,1-dimethylsilocan-5-yl)-2-phenyl-4H-pyrrolo[2,3-d]thiazole-5-carboxamide]
MIC [1]: 0.031 µg/mL (≈ 0.078 µM) | MIC [2]: > 64 µg/mL

C[Si]1(C)CCC(NC(=O)c2cc3sc(-c4ccncc4)nc3[nH]2)CC1 [MPL-370, N-(1,1-dimethylsilinan-4-yl)-2-(4-pyridyl)-4H-pyrrolo[2,3-d]thiazole-5-carboxamide]
MIC [1]: 0.574 µg/mL (≈ 1.55 µM) | MIC [2]: > 64 µg/mL

Cc1ccccc1-c1nc2[nH]c(C(=O)NC3CC[Si](C)(C)CC3)cc2s1 [MPL-371, N-(1,1-dimethylsilinan-4-yl)-2-(o-tolyl)-4H-pyrrolo[2,3-d]thiazole-5-carboxamide]
MIC [1]: 0.041 µg/mL (≈ 0.107 µM) | MIC [2]: > 64 µg/mL

COc1ccccc1-c1nc2[nH]c(C(=O)NC3CC[Si](C)(C)CC3)cc2s1 [MPL-372, N-(1,1-dimethylsilinan-4-yl)-2-(2-methoxyphenyl)-4H-pyrrolo[2,3-d]thiazole-5-carboxamide]
MIC [1]: 0.138 µg/mL (≈ 0.345 µM) | MIC [2]: > 64 µg/mL

C[Si]1(C)CCC(NC(=O)c2cc3sc(-c4ccccc4F)nc3[nH]2)CC1 [MPL-373, N-(1,1-dimethylsilinan-4-yl)-2-(2-fluorophenyl)-4H-pyrrolo[2,3-d]thiazole-5-carboxamide]
MIC [1]: 0.084 µg/mL (≈ 0.217 µM) | MIC [2]: 6 µg/mL (≈ 15.5 µM)

COc1nc2[nH]c(C(=O)NC3CC[Si]4(CCCC4)CC3)cc2s1 [MPL-393, 2-methoxy-N-(5-silaspiro[4.5]decan-8-yl)-4H-pyrrolo[2,3-d]thiazole-5-carboxamide]
MIC [1]: 0.062 µg/mL (≈ 0.177 µM) | MIC [2]: > 64 µg/mL

COc1nc2[nH]c(C(=O)NC3CC[Si]4(CCCCC4)CC3)cc2s1 [MPL-394, 2-methoxy-N-(6-silaspiro[5.5]undecan-3-yl)-4H-pyrrolo[2,3-d]thiazole-5-carboxamide]
MIC [1]: 0.04 µg/mL (≈ 0.11 µM) | MIC [2]: > 64 µg/mL

COc1nc2[nH]c(C(=O)NC3CCC[Si](C)(C)CCC3)cc2s1 [MPL-396, N-(1,1-dimethylsilocan-5-yl)-2-methoxy-4H-pyrrolo[2,3-d]thiazole-5-carboxamide]
MIC [1]: 0.309 µg/mL (≈ 0.879 µM) | MIC [2]: > 64 µg/mL

COc1nc2[nH]c(C(=O)NC3CC[Si](C)(C)C3)cc2s1 (centres unmarked) [MPL-403, N-(1,1-dimethylsilolan-3-yl)-2-methoxy-4H-pyrrolo[2,3-d]thiazole-5-carboxamide]
MIC [1]: 0.809 µg/mL (≈ 2.61 µM) | MIC [2]: 4 µg/mL (≈ 12.9 µM)

C[Si]1(C)CCC(NC(=O)c2cc3sc(-c4ccccc4)nc3[nH]2)C1 (centres unmarked) [MPL-404, N-(1,1-dimethylsilolan-3-yl)-2-phenyl-4H-pyrrolo[2,3-d]thiazole-5-carboxamide]
MIC [1]: 0.083 µg/mL (≈ 0.233 µM) | MIC [2]: 64 µg/mL (≈ 180 µM)

COCCOc1nc2[nH]c(C(=O)NC3CC[Si]4(CCCCC4)CC3)cc2s1 [MPL-427, 2-(2-methoxyethoxy)-N-(6-silaspiro[5.5]undecan-3-yl)-4H-pyrrolo[2,3-d] thiazole-5-carboxamide]
MIC [1]: 0.036 µg/mL (≈ 0.0883 µM) | MIC [2]: > 64 µg/mL

COCc1nc2[nH]c(C(=O)NC3CC[Si]4(CCCCC4)CC3)cc2s1 [MPL-429, 2-(methoxymethyl)-N-(6-silaspiro[5.5]undecan-3-yl)-4H-pyrrolo[2,3-d]thiazole-5-carboxamide]
MIC [1]: 0.058 µg/mL (≈ 0.154 µM) | MIC [2]: 64 µg/mL (≈ 169 µM)

Cc1c(C(=O)NC2CC[Si]3(CCCCC3)CC2)[nH]c2nc(-c3ccccc3)sc12 [MPL-431, 6-methyl-2-phenyl-N-(6-silaspiro[5.5]undecan-3-yl)-4H-pyrrolo[2,3-d]thiazole-5-carboxamide]
MIC [1]: 0.021 µg/mL (≈ 0.0496 µM) | MIC [2]: > 64 µg/mL

COc1nc2[nH]c(C(=O)NC3CCC(C)(C)CC3)cc2s1 [MPL-456, N-(4,4-dimethylcyclohexyl)-2-methoxy-4H-pyrrolo[2,3-d]thiazole-5-carboxamide]
MIC [1]: 0.317 µg/mL (≈ 1.03 µM) | MIC [2]: 1 µg/mL (≈ 3.25 µM)

O=C(NC1CC[Si]2(CCCC2)CC1)c1cc2sc(OC3CC3)nc2[nH]1 [MPL-458, 2-(cyclopropoxy)-N-(5-silaspiro[4.5]decan-8-yl)-4H-pyrrolo[2,3-d]thiazole-5-carboxamide]
MIC [1]: 0.124 µg/mL (≈ 0.33 µM) | MIC [2]: > 64 µg/mL

O=C(NC1CC[Si]2(CCCC2)CC1)c1cc2sc(OC3CCC3)nc2[nH]1 [MPL-459, 2-(cyclobutoxy)-N-(5-silaspiro[4.5]decan-8-yl)-4H-pyrrolo[2,3-d]thiazole-5-carboxamide]
MIC [1]: 0.0593 µg/mL (≈ 0.152 µM) | MIC [2]: > 64 µg/mL

C[Si]1(C)CCCC(NC(=O)c2cc3sc(OC4CC4)nc3[nH]2)CC1 (centres unmarked) [MPL-472, 2-(cyclopropoxy)-N-(1,1-dimethylsilepan-4-yl)-4H-pyrrolo[2,3-d]thiazole-5-carboxamide]
MIC [1]: 0.06 µg/mL (≈ 0.165 µM) | MIC [2]: > 64 µg/mL

C[Si]1(C)CCC(NC(=O)c2cc3sc(C4CCCC4)nc3[nH]2)CC1 [MPL-474, 2-cyclopentyl-N-(1,1-dimethylsilinan-4-yl)-4H-pyrrolo[2,3-d] thiazole-5-carboxamide]
MIC [1]: 0.061 µg/mL (≈ 0.169 µM) | MIC [2]: > 64 µg/mL

C[Si]1(C)CCCC(NC(=O)c2cc3sc(OC4CCC4)nc3[nH]2)CC1 (centres unmarked) [MPL-475, 2-(cyclobutoxy)-N-(1,1-dimethylsilepan-4-yl)-4H-pyrrolo[2,3-d]thiazole-5-carboxamide]
MIC [1]: 0.046 µg/mL (≈ 0.122 µM) | MIC [2]: 16 µg/mL (≈ 42.4 µM)

C[Si]1(C)CCCC(NC(=O)c2cc3sc(OC4CCCC4)nc3[nH]2)CC1 (centres unmarked) [MPL-478, 2-(cyclopentoxy)-N-(1,1-dimethylsilepan-4-yl)-4H-pyrrolo[2,3-d]thiazole-5-carboxamide]
MIC [1]: 0.02 µg/mL (≈ 0.0511 µM) | MIC [2]: > 64 µg/mL
